17 compounds from US7964594B1, “Amino oxazine derivatives” (Hoffmann-La Roche Inc., priority 2009, dated 2011) can be followed below.

Each structure is given as a SMILES string. pIC50: −log10 of the molar value.

This test addresses T1, BACE2 (Rattus norvegicus, UniProt Q6IE75).
T1 construct: endogenous cellular BACE2 in the Ins1e rat cell line; endogenous in cells; host or cells: INS-TMEM27 (INS1e-derived rat insulinoma cell line with doxycycline-inducible full-length hTMEM27)
T1 sequence (Q6IE75 63-514): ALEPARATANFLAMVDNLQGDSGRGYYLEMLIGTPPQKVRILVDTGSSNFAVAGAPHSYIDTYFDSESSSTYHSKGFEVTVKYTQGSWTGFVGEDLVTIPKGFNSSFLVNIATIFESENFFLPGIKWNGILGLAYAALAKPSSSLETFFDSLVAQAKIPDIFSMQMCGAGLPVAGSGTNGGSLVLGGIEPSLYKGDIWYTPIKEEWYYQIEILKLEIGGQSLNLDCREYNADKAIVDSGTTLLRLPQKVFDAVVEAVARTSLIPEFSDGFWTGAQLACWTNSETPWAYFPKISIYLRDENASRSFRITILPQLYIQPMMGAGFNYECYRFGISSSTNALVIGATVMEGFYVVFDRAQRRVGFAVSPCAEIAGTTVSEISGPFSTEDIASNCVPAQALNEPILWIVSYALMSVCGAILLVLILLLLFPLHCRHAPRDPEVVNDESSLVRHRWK
Briefly: Assay for BACE inhibition by measuring cellular TMEM27 cleavage (INS-TMEM27 cells, ELISA of shed TMEM27). In kind it is cell-based. As to conditions: inhibition of human TMEM27 cleavage by endogenous cellular BACE2 in Ins1e rat cell line; ELISA of culture medium. The text has this:
Assay for BACE Inhibition by Measuring Cellular TMEM27 Cleavage
The assay uses the principle of inhibition of human TMEM27 cleavage by endogenous cellular BACE2 in the Ins1e rat cell line and shedding from the cell surface into the culture medium, followed by detection in an ELISA assay. Inhibition of BACE2 prevents the cleavage and shedding in a dose-dependent manner.
The stable cell line “INS-TMEM27” represents an INS1e-derived cell line with inducible expression (using the TetOn system) of full-length hTMEM27 in a doxycycline-dependent manner. The cells were cultured throughout the experiment in RPMI1640+Glutamax (Invitrogen) Penicillin/Streptomycin, 10% Fetal bovine serum, […], […], 100 micrograms/ml G418 and 100 microgram/ml hygromycin and were grown in adherent culture at 37° C. in a standard CO2 cell culture incubator.
INS-TMEM27 cells were seeded in 96-well plates. After 2 days in culture, BACE2 inhibitor was added in a range of concentrations as required by the assay and after a further two hours, doxycycline was added to a final concentration of 500 ng/ml. The cells were incubated for a further 46 hours and the supernatant harvested for detection of shed TMEM27.
An ELISA assay (using a pair of mouse anti-human-TMEM27 antibodies, raised against the extracellular domain of TMEM27) was used for detection of TMEM27 in the culture medium. An IC50 for BACE2 inhibition was calculated using the ELISA readout for each inhibitor concentration with standard curve-fitting software XLfit (IDBS) for the Excel spreadsheet program.
In general terms: ELISA stands for enzyme-linked immunosorbent assay.
A word on the pIC50: it is the negative decadic logarithm of the IC50, by convention in mol/L. A low value points to a large IC50. With `CC[C@@]1(c2cc(NC(=O)c3ccccn3)ccc2F)CCOC(N)=N1` [Example 18, Pyridine-2-carboxylic acid [3-((S)-2-amino-4-ethyl-5,6-dihydro-4H-[1,3]oxazin-4-yl)-4-fluoro-phenyl]-amide], the pIC50 is 7.46.
Next, `C[C@]1(c2cc(NC(=O)c3ncc(C(F)(F)F)cc3Cl)ccc2F)N=C(N)OCC12CC2` [Example 50, (S)—N-(3-(6-Amino-8-methyl-5-oxa-7-azaspiro[2.5]oct-6-en-8-yl)-4-fluorophenyl)-3-chloro-5-(trifluoromethyl)picolinamide]: 6.72; `C[C@@]1(c2cc(NC(=O)c3n[nH]cc3Cl)ccc2F)CCOC(N)=N1` [Example 64]: 6.33.
For `CC[C@@]1(c2cc(NC(=O)c3ccc(Cl)cn3)ccc2F)CCOC(N)=N1` [Example 19, 5-Chloro-pyridine-2-carboxylic acid [3-((S)-2-amino-4-ethyl-5,6-dihydro-4H-[1,3]oxazin-4-yl)-4-fluoro-phenyl]-amide] the value was 8.10.
Next, `C[C@]1(c2cc(NC(=O)c3c(F)cccc3F)ccc2F)N=C(N)OCC12CC2` [Example 47, (S)—N-(3-(6-Amino-8-methyl-5-oxa-7-azaspiro[2.5]oct-6-en-8-yl)-4-fluorophenyl)-2,6-difluorobenzamide]: 6.21; `C[C@@]1(c2cc(NC(=O)C3(C(F)(F)F)CC3)ccc2F)CCOC(N)=N1` [Example 58, 1-Trifluoromethyl-cyclopropanecarboxylic acid [3-((S)-2-amino-4-methyl-5,6-dihydro-4H-[1,3]oxazin-4-yl)-4-fluoro-phenyl]-amide]: 6.15.
On to `Cc1ccsc1C(=O)Nc1ccc(F)c([C@]2(C)CCOC(N)=N2)c1` [Example 34], for which the pIC50 was 6.46.
For `C[C@@]1(c2cc(NC(=O)c3ncc(C(F)(F)F)cc3Cl)ccc2F)CCOC(N)=N1` [Example 31, 3-Chloro-5-trifluoromethyl-pyridine-2-carboxylic acid [3-((S)-2-amino-4-methyl-5,6-dihydro-4H-[1,3]oxazin-4-yl)-4-fluoro-phenyl]-amide] the value was 7.96; for `Cc1ccc(C(=O)Nc2ccc(F)c([C@]3(C)CCOC(N)=N3)c2)s1` [Example 17, 5-Methyl-thiophene-2-carboxylic acid [3-((S)-2-amino-4-methyl-5,6-dihydro-4H-[1,3]oxazin-4-yl)-4-fluoro-phenyl]-amide], 7.96; for `C[C@]1(c2cc(NC(=O)c3ccccn3)ccc2F)N=C(N)OCC12CC2` [Example 43, Pyridine-2-carboxylic acid [3-((S)-6-amino-8-methyl-5-oxa-7-aza-spiro[2.5]oct-6-en-8-yl)-4-fluoro-phenyl]-amide], 7.74.
For `C[C@]1(c2cc(NC(=O)c3ncccc3Cl)ccc2F)N=C(N)OCC12CC2` [Example 48, (S)—N-(3-(6-Amino-8-methyl-5-oxa-7-azaspiro[2.5]oct-6-en-8-yl)-4-fluorophenyl)-3-chloropicolinamide] the value was 7.44; for `C[C@@]1(c2cc(NC(=O)c3ccc(F)s3)ccc2F)CCOC(N)=N1` [Example 7, 5-Fluoro-thiophene-2-carboxylic acid [3-((S)-2-amino-4-methyl-5,6-dihydro-4H-[1,3]oxazin-4-yl)-4-fluoro-phenyl]-amide], 6.47; for `CC[C@@]1(c2cc(NC(=O)c3ncc(Cl)cc3Cl)ccc2F)CCOC(N)=N1` [Example 22], 8.15.
For `C[C@@]1(c2cc(NC(=O)c3cccc(Cl)n3)ccc2F)CCOC(N)=N1` [Example 32, 6-Chloro-pyridine-2-carboxylic acid [3-((S)-2-amino-4-methyl-5,6-dihydro-4H-[1,3]oxazin-4-yl)-4-fluoro-phenyl]-amide] the value was 8.40.
Compound `C[C@@]1(c2cc(NC(=O)c3ccc(OC(F)F)cn3)ccc2F)CCOC(N)=N1` [Example 61, 5-Difluoromethoxy-pyridine-2-carboxylic acid [3-((S)-2-amino-4-methyl-5,6-dihydro-4H-[1,3]oxazin-4-yl)-4-fluoro-phenyl]-amide] gave a pIC50 of 6.32.
`COc1cccnc1C(=O)Nc1ccc(F)c([C@]2(C)CCOC(N)=N2)c1` [Example 27, 3-Methoxy-pyridine-2-carboxylic acid [3-((S)-2-amino-4-methyl-5,6-dihydro-4H-[1,3]oxazin-4-yl)-4-fluoro-phenyl]-amide] showed a pIC50 of 7.64.
For `C[C@]1(c2cc(NC(=O)C3CC3(F)F)ccc2F)N=C(N)OCC12CC2` (mixture of isomers) [Example 55, N-(3-((S)-6-Amino-8-methyl-5-oxa-7-azaspiro[2.5]oct-6-en-8-yl)-4-fluorophenyl)-2,2-difluorocyclopropanecarboxamide] the value was 5.68.
